Assay [1] addresses Mitogen-activated protein kinase 14 (Homo sapiens, UniProt Q16539). In words: Inhibition of recombinant human p38alpha expressed in Escherichia coli assessed as incoporation of [33]Pi after 60 mins in presence of [gamma-33P]-ATP by microplate scintillation counter method.
The target of assay [2] is T1, TGF-beta receptor type-1 (Homo sapiens) (UniProt P36897).
T1 sequence (whole entry): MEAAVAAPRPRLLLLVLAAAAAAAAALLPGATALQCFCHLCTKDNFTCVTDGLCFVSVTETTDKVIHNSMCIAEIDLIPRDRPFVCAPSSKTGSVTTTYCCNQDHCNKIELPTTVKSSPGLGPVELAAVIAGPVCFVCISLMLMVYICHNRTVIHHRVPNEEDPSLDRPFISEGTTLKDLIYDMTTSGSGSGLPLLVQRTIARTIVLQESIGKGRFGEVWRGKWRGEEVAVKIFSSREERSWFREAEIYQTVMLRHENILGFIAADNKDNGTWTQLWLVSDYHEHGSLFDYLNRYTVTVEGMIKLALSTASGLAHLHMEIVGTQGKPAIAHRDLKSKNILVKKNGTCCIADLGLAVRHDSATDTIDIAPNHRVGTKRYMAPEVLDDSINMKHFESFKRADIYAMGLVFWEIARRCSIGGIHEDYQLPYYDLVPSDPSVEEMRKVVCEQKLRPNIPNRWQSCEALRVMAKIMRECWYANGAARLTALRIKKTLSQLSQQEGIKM
In words: Potency index, ratio of LY-2157299 IC50 to test compound IC50 for recombinant human GST-fused ALK5 expressed in baculovirus infected Sf9 cells assessed as incoporation of [33]Pi after 60 mins in presence of [gamma-33P]-ATP by microplate scintillation counter method.

Another assay deals with T2, TGF-beta receptor type-1 (Homo sapiens, UniProt P36897).
T2 sequence (P36897 whole entry): T1 sequence (whole entry)
The experiment in a line: Inhibition of recombinant human GST-fused ALK5 expressed in baculovirus infected Sf9 cells assessed as incoporation of [33]Pi after 60 mins in presence of [gamma-33P]-ATP by microplate scintillation counter method.

Assay [3] concerns the target T1, TGF-beta receptor type-1 (Homo sapiens). In words: Potency index, ratio of EW-7197 IC50 to test compound IC50 for recombinant human GST-fused ALK5 expressed in baculovirus infected Sf9 cells assessed as incoporation of [33]Pi after 60 mins in presence of [gamma-33P]-ATP by microplate scintillation counter method.
Assay [4] deals with U-87MG ATCC. In words: Reversal of TGF-beta-induced epithelial-mesenchymal transition in human U-87MG cells assessed as reduction in vimentin protein level at 0.1 to 0.5 uM after 48 hrs by Western blotting analysis. In kind it is functional, cell-based. The settings on record: dose 0.1-0.5 µM. On the technique in general: Immunoblotting shows a protein as a band on a membrane.

Assay [5] deals with U-87MG ATCC. The experiment in a line: Reversal of TGF-beta-induced epithelial-mesenchymal transition in human U-87MG cells assessed as reduction in N-cadherin protein level at 0.1 to 0.5 uM after 48 hrs by Western blotting analysis. In kind it is functional, cell-based. The settings on record: dose 0.1-0.5 µM.
Assay [6] has as its system U-87 MG. The experiment in a line: Inhibition of epithelial-mesenchymal transition in human U-87MG cells assessed as reduction in TGF-beta stimulated Slug protein expression after 48 hrs by Western blot anlaysis. In kind it is functional, cell-based. The settings on record: U-87MG ATCC, dose 0.5-1 µM.
In assay [7] the test system is U-87MG ATCC. In words: Inhibition of TGF-beta-induced morphological changes in human U-87MG cells at 0.1 to 1 uM after 48 hrs. To be noted: dose 0.1-1 µM. The assay is classed as functional, cell-based.
The subject of assay [8] is U-87MG ATCC. The experiment in a line: Reversal of TGF-beta-induced epithelial-mesenchymal transition in human U-87MG cells assessed as reduction in N-cadherin mRNA level at 1 uM after 48 hrs by RT-PCR analysis. The assay is classed as functional, cell-based.
The test system of assay [9] is U-87 MG. The experiment in a line: Inhibition of epithelial-mesenchymal transition in human U-87MG cells assessed as reduction in TGF-beta stimulated nuclear translocation of slug at 1 uM pretreated with compound followed by TGFbeta stimulation and measured after 48 hrs by immunofluorescence assay. In kind it is functional, cell-based. To be noted: U-87MG ATCC.
The subject of assay [10] is U-87 MG. The experiment in a line: Inhibition of TGF-beta-induced cell migration in human U-87MG cells at 1 uM incubated for 36 hrs by bright field microscopy based wound healing assay. In kind it is functional. The settings on record: U-87MG ATCC.
For assay [11], the system named is U-87MG ATCC. The experiment in a line: Reversal of TGF-beta-induced epithelial-mesenchymal transition in human U-87MG cells assessed as downregulation of N-cadherin expression at 1 uM after 48 hrs by immunofluorescence assay. The assay is classed as functional, cell-based.
Assay [12] concerns U-87MG ATCC. In words: Reversal of TGF-beta-induced epithelial-mesenchymal transition in human U-87MG cells assessed as reduction in vimentin mRNA level at 1 uM after 48 hrs by RT-PCR analysis. The assay is classed as functional, cell-based.
In assay [13] the test system is U-87MG ATCC. In words: Inhibition of TGF-beta-induced cell invasion in human U-87MG cells at 1 uM incubated for 24 hrs by crystal violet staining based matrigel transwell assay. In kind it is functional.

Activity calls are given as the source filed them. No cut-off for these calls is given here.

Mitogen-activated protein kinase 14, sequence (Q16539 whole entry): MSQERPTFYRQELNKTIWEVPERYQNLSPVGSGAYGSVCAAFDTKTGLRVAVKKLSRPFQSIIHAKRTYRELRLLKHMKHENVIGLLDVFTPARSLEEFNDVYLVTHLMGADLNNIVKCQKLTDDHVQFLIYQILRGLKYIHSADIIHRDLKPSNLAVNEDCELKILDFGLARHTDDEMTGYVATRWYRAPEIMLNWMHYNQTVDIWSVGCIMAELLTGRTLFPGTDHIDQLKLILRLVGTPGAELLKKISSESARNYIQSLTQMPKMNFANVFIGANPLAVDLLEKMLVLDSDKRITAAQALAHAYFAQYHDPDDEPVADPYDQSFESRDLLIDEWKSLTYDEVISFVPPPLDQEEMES

As usually defined, the IC50 is the midpoint of a concentration-inhibition curve. With `Cc1cccc(-c2[nH]c(CNc3ccccc3)nc2-c2ccc3[nH]ncc3c2)n1`, the 50% inhibitory concentration (IC50) in [1] amounted to 13 nM; on TGF-beta receptor type-1, 4 nM. Besides, the Ratio IC50 in assay [2] stood at 32.3; in [3] it was 3.5.

On to `Cc1cccc(-c2[nH]c(CNc3ccccc3C)nc2-c2ccc3c(cnn3C)c2)n1`, for which the IC50 came out at 71 nM in assay [1] and 24 nM at TGF-beta receptor type-1. The Ratio IC50 in assay [2] was found to be 3.8.

With `Cc1ccc(NCc2nc(-c3ccc4c(cnn4C)c3)c(-c3cccc(C)n3)[nH]2)cc1`, the figures for the IC50 (in [1]; on TGF-beta receptor type-1) were 565 nM and 34 nM, respectively. Moreover, in [2], the Ratio IC50 was found to be 3.8.

Take `Cc1cccc(-c2nn3c(c2-c2ccnc4ccc(C(N)=O)cc24)CCC3)n1`: the outcome in the assay on U-87MG ATCC [4] and in the assay on U-87MG ATCC [5] was Active. In addition, the inhibition result in the assay on U-87 MG [6] was “Dose-dependent effect”. For the same compound, the inhibition entry with U-87MG ATCC [7] was “Active”.

Regarding `Cc1cccc(-c2[nH]c(CNc3cccc(F)c3)nc2-c2ccc3c(cnn3C)c2)n1`, the results for the IC50 (in assay [1]; at TGF-beta receptor type-1) were 26 nM and 11 nM, respectively. For the same compound, in assay [2], the Ratio IC50 worked out at 3.8.

For `Cc1cccc(NCc2nc(-c3ccc4c(cnn4C)c3)c(-c3cccc(C)n3)[nH]2)c1`, the IC50 in assay [1] was 23 nM; at TGF-beta receptor type-1, 10 nM.

Take `Cc1cccc(-c2[nH]c(CNc3ccc(F)cc3)nc2-c2ccc3c(cnn3C)c2)n1`: the values for the IC50 (in assay [1]; on TGF-beta receptor type-1) were 112 nM and 16 nM, respectively. Besides, the Ratio IC50 in assay [2] came out at 3.8.

Take `Cc1cccc(-c2[nH]c(CNc3ccccc3C)nc2-c2ccc3[nH]ncc3c2)n1`: the results for the IC50 (in assay [1]; on TGF-beta receptor type-1) were 23 nM and 5 nM, respectively.

As for `Cc1cccc(-c2[nH]c(CNc3ccc(F)cc3)nc2-c2ccc3[nH]ncc3c2)n1`, the 50% inhibitory concentration (IC50) came out at 52 nM in [1] and 6 nM at TGF-beta receptor type-1. Also, the Ratio IC50 in [2] turned out to be 3.8.

For `Cc1cccc(NCc2nc(-c3ccc4[nH]ncc4c3)c(-c3cccc(C)n3)[nH]2)c1`, the IC50 in assay [1] amounted to 32 nM; at TGF-beta receptor type-1 it was 8 nM. The Ratio IC50 in assay [2] came out at 3.8.

Turning to `Cc1cccc(-c2[nH]c(CNc3ccccc3F)nc2-c2ccc3c(cnn3C)c2)n1`, the values for the IC50 (in [1]; at TGF-beta receptor type-1) were 95 nM and 13 nM, respectively.

As to `Cc1cccc(-c2[nH]c(CNc3ccccc3)nc2-c2ccc3c(cnn3C)c2)n1`, the IC50 was 66 nM in assay [1] and 14 nM on TGF-beta receptor type-1. In addition, the Ratio IC50 in [2] was 3.8.

As for `Cc1ccc(NCc2nc(-c3ccc4[nH]ncc4c3)c(-c3cccc(C)n3)[nH]2)cc1`, the IC50 in assay [1] worked out at 329 nM; on TGF-beta receptor type-1, 9 nM.

Consider `Cc1cccc(-c2[nH]c(CNc3cccc(F)c3)nc2-c2ccc3[nH]ncc3c2)n1`, for which the IC50 (in [1]; on TGF-beta receptor type-1) was 4 nM in each case. Besides, the outcome in the assay on U-87MG ATCC [4], in the assay with U-87MG ATCC [5], in the assay on U-87MG ATCC [8], in the assay with U-87MG ATCC [11] and in the assay with U-87MG ATCC [12] was Active. Further, the inhibition entry in the assay with U-87 MG [6] is “Dose-dependent effect”. The inhibition result with U-87 MG [9], with U-87 MG [10], in the assay with U-87MG ATCC [7] and in the assay with U-87MG ATCC [13] was “Active” throughout.

As for `Cc1cccc(-c2[nH]c(CNc3ccccc3F)nc2-c2ccc3[nH]ncc3c2)n1`, the IC50 in [1] amounted to 20 nM; at TGF-beta receptor type-1, 5 nM.
